Experimental data from ChEMBL document CHEMBL3286309, “4,5-Di-substituted benzyl-imidazol-2-substituted amines as the structure template for the design and synthesis of reversal agents against P-gp-mediated multidrug resistance breast cancer cells” (Eur J Med Chem, 2014).
pIC50: −log10 of the molar value.

Tests used:
[1] = Cytotoxicity against human MDA435/LCC6 cells after 5 days by MTS assay; type: functional, cell-based; conditions: MDA-435/LCC6, 120 h
[2] = Cytotoxicity against human MDA435/LCC6MDR cells after 5 days by MTS assay; type: functional, cell-based; conditions: 120 h
[3] = Cytotoxicity against human MDA435/LCC6MDR cells after 3 days by MTS assay; type: ADME, cell-based; conditions: 72 h
[4] = Cytotoxicity against human MDA435/LCC6 cells after 3 days by MTS assay; type: cell-based; conditions: MDA-435/LCC6, 72 h
L929 = test: Cytotoxicity against mouse L929 cells after 3 days by MTS assay; type: cell-based; conditions: L929, 72 h

Compound | pIC50 [1] | pIC50 [2] | pIC50 [3] | pIC50 [4] | pIC50 (L929)
CC(=O)O[C@H]1C(=O)[C@@]2(C)[C@H]([C@H](OC(=O)c3ccccc3)[C@]3(O)C[C@H](OC(=O)[C@H](O)[C@@H](NC(=O)c4ccccc4)c4ccccc4)C(C)=C1C3(C)C)[C@]1(OC(C)=O)CO[C@@H]1C[C@@H]2O [PACLITAXEL] | 8.59 | 6.83 | – | – | –
CCN(CC)c1ccc(Cc2c(Cc3ccc(OC)c(OC)c3)nc(NC(=O)c3cc(OC)c(OC)c(OC)c3)n2C)cc1 | – | – | 4.42 | 4.34 | 4.32
CCN(CC)c1ccc(Cc2c(Cc3ccc(OC)c(OC)c3)nc(N(C(=O)/C=C/c3cc(OC)c(OC)c(OC)c3)C(=O)/C=C/c3cc(OC)c(OC)c(OC)c3)n2C)cc1 | – | – | 5.04 | 4.86 | 4.74
